Assays:
[1] = refractive index (Na D-line) (dimensionless); conditions: 298.15 K; 101.33 kPa; Liquid; Standard Abbe refractometry
[2] = for mass density: 298.15 K, 101.33 kPa; for mass density / vapor or sublimation pressure: Liquid; for surface tension liquid-gas: 303.15 K, Maximal bubble pressure
[3] = xn = mol fraction of the nth substance listed; conditions: 303.15 K, Maximal bubble pressure

COC(C)(C)C [2-methoxy-2-methylpropane]
Conditions	mass density [kg/m3]	refractive index	surface tension liquid-gas [mN/m]
[1]	–	1.36766	–
[2]	735.45	–	18.7

[2]
Conditions	vapor or sublimation pressure [kPa]
308.3 K	50
319.39 K	75
325.98 K	94

COC(C)(C)C [2-methoxy-2-methylpropane] + CCO
[3]
Conditions	surface tension liquid-gas [mN/m]
x2 = 0.102	18.39
x2 = 0.212	18.38
x2 = 0.31	18.54
x2 = 0.408	18.84
x2 = 0.527	19
x2 = 0.623	19.21
x2 = 0.721	19.56
x2 = 0.826	20.03

CCO [ethanol]
Conditions	mass density [kg/m3]	refractive index	surface tension liquid-gas [mN/m]
[1]	–	1.36068	–
[2]	785.05	–	21.7

[2]
Conditions	vapor or sublimation pressure [kPa]
310.89 K	16.01
318.88 K	24.01
323.51 K	30.01
328.54 K	38.01
332.24 K	45.01
334.57 K	50
335.05 K	51.01
338.38 K	59.01
341.01 K	66.01
343.4 K	73.01
344.02 K	75
345.61 K	80.01
347.66 K	87.01
349.56 K	94
349.58 K	94.01
351.65 K	102.07
